Experimental data reported in PubChem BioAssay AID743424 (The Scripps Research Institute Molecular Screening Center, 2014).
Active and inactive are the calls of the source. No rule for the calls is given here.

Target: Sphingosine 1-phosphate receptor 3 (Homo sapiens) (UniProt Q99500)
Experiment: agonism at human S1PR3 – cell-based, fluorescence, dose response, counter-screen for S1PR3 antagonist project, late-stage follow-up (AID 743424)
Conditions: S1P3-expressing cells, agonist-mode fluorescence counterscreen

Sequence of Sphingosine 1-phosphate receptor 3 (Homo sapiens) (Q99500 whole entry, looked up): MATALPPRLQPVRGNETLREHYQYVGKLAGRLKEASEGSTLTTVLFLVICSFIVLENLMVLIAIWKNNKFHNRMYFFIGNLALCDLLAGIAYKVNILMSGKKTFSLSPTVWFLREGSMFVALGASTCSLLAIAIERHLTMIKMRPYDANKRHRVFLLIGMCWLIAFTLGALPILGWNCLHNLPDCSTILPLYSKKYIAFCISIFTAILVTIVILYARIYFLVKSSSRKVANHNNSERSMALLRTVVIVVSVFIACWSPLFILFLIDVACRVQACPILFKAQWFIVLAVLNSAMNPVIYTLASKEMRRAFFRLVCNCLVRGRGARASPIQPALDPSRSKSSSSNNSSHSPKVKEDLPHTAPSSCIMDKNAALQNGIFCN

In the case of `O=C(NC(c1ccc(Cl)cc1)c1nc(-c2ccccc2)no1)c1ccc(Cl)c(Cl)c1` (configuration not stated), the EC50 is reported as > 50 µM (inactive).

`O=C(NC(c1ccc(Cl)c(Cl)c1)c1nc(-c2ccccc2)no1)c1cccc(Cl)c1` (configuration not stated) was tested, and the EC50 was > 50 µM (inactive).

`O=C(NC(c1ccccc1)c1nc(-c2ccccc2)no1)c1cccc(Br)c1` (configuration not stated) was tested, and the EC50 was > 50 µM (inactive).

`O=C(NC(Cc1ccccc1)c1nc(-c2ccccc2)no1)c1cccc(Cl)c1` (configuration not stated) was tested, and the EC50 was > 50 µM (inactive).

In the case of `O=C(NC(c1cccc(Cl)c1)c1nc(-c2ccccc2)no1)c1cccc(Cl)c1` (configuration not stated), the EC50 is reported as > 50 µM (inactive).

`O=C(NC(c1cccc(Cl)c1)c1nc(-c2ccccc2)no1)c1cc(Cl)cc(Cl)c1` (configuration not stated) was tested, and the EC50 was > 50 µM (inactive).

With `O=C(NC(c1nc(-c2ccccc2)no1)C1CCOCC1)c1ccc(Cl)c(Cl)c1` (configuration not stated) the EC50 was > 50 µM (inactive).

With `O=C(NC(c1nc(-c2ccccc2)no1)C1CCCCC1)c1ccc(Cl)c(Cl)c1` (configuration not stated) the EC50 was > 50 µM (inactive).

With `CCc1ccc(C(NC(=O)c2cccc(Cl)c2)c2nc(-c3ccccc3)no2)cc1` (configuration not stated) the EC50 was > 50 µM (inactive).

With `O=C(NC(c1ccc(Cl)cc1)c1nc(-c2cccc(Cl)c2)no1)c1cccc(Cl)c1` (configuration not stated) the EC50 was > 50 µM (inactive).

`O=C(NC(c1ccc(Cl)cc1)c1nc(-c2ccccc2)no1)c1cccc(Br)c1` (configuration not stated) was tested, and the EC50 was > 50 µM (inactive).

In the case of `O=C(NC(c1ccc(Cl)c(Cl)c1)c1nc(-c2ccccc2)no1)c1ccc(Cl)cc1` (configuration not stated), the EC50 is reported as > 50 µM (inactive).

In the case of `O=C(NC(c1ccc(Br)cc1)c1nc(-c2ccccc2)no1)c1ccc(Cl)c(Cl)c1` (configuration not stated), the EC50 is reported as > 50 µM (inactive).

With `O=C(NC(c1ccc(Cl)cc1)c1nc(-c2ccccc2)no1)c1ccc(Cl)c(Br)c1` (configuration not stated) the EC50 was > 50 µM (inactive).

With `COc1ccc(C(=O)NC(c2ccccc2)c2nc(-c3ccccc3)no2)cc1` (configuration not stated) the EC50 was > 50 µM (inactive).

With `Cc1ccc(C(NC(=O)c2cccc(Cl)c2)c2nc(-c3ccccc3)no2)cc1` (configuration not stated) the EC50 was > 50 µM (inactive).

For `O=C(c1cccc(Cl)c1)N(CCO)C(c1ccc(Cl)c(Cl)c1)c1nc(-c2ccccc2)no1` (configuration not stated), the EC50 was > 50 µM (inactive).

In the case of `O=C(NC(c1ccc(Cl)c(Cl)c1)c1nc(-c2ccccc2)no1)c1ccc(Cl)c(Cl)c1` (configuration not stated), the EC50 is reported as > 50 µM (inactive).

With `Cc1ccc(C(=O)NC(c2ccccc2)c2nc(-c3ccccc3)no2)cc1` (configuration not stated) the EC50 was > 50 µM (inactive).

`O=C(NC(c1ccccc1)c1nc(-c2ccccc2)no1)c1ccc(Cl)cc1` (configuration not stated) was tested, and the EC50 was > 50 µM (inactive).

In the case of `O=C(NC(c1ccccc1)c1nc(-c2ccccc2)no1)c1cccc(Cl)c1` (configuration not stated), the EC50 is reported as > 50 µM (inactive).

For `O=C(NC(c1cccc(Cl)c1)c1nc(-c2ccccc2)no1)c1ccc(Cl)c(Cl)c1` (configuration not stated), the EC50 was > 50 µM (inactive).

In the case of `O=C(NC(c1ccc(Cl)cc1)c1nc(-c2ccccc2)no1)c1cccc(Cl)c1` (configuration not stated), the EC50 is reported as > 50 µM (inactive).

In the case of `O=C(NC(c1ccccc1)c1nc(-c2ccccc2)no1)c1cccc(Cl)n1` (configuration not stated), the EC50 is reported as “inactive”.

With `O=C(NC(c1ccc(Cl)cc1)c1nc(-c2ccccn2)no1)c1cccc(Cl)c1` (configuration not stated) the EC50 was > 50 µM (inactive).

`O=C(NC(c1ccc(Cl)c(Cl)c1)c1nc(-c2ccccc2)no1)c1ccccc1` (configuration not stated) was tested, and the EC50 was > 50 µM (inactive).

For `N#Cc1ccc(C(=O)NC(c2ccc(Cl)c(Cl)c2)c2nc(-c3ccccc3)no2)cc1` (configuration not stated), the EC50 was > 50 µM (inactive).
